Laboratory results from patent publication EP4782453A1 (Beyang Therapeutics Co., Ltd., priority 2023, dated 2025).
Read-outs that look alike come from different tables or passages of the source.

Molecular target: T1, Menin-MLL (Homo sapiens, UniProt O00255)
T1 construct: His-Menin (M1-L615 end); purchased BIORTUS BP9210
T1 sequence (O00255 1-615 isoform O00255-1): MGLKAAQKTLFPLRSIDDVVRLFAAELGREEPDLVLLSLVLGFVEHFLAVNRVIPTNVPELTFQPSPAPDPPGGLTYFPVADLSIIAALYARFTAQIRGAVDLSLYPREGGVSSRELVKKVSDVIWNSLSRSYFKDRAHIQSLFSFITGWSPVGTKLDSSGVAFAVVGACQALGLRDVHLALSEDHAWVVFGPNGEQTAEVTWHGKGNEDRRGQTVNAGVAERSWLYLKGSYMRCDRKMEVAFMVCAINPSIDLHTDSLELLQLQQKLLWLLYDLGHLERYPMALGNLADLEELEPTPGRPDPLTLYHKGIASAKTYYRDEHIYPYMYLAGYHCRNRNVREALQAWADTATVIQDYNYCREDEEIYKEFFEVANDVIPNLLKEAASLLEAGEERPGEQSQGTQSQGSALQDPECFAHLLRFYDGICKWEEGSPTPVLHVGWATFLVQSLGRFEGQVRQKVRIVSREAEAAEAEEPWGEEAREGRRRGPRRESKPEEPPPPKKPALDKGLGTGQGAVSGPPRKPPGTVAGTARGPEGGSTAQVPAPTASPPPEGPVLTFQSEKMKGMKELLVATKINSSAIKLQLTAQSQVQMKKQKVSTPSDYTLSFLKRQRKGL
Assay: Inhibitory activity against Menin-MLL binding (fluorescence polarization)
Details: 150 nM His-Menin, 15 nM FITC-MLL, 25°C for 60 min
Summary of the method: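 His-Menin (M1-L615, 150 nM) preincubated with compound 15 min at 25 °C in HEPES pH 7.5, 50 mM NaCl, 1 mM DTT, 0.01% BSA, then 15 nM FITC-MLL4-43 peptide added for 60 min at 25 °C. Fluorescence polarization read; IC50 from 4-parameter logistic fit, duplicates.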

[1] = fluorescence polarization, read-out: Menin-MLL IC50

SMILES: CCN(C(=O)c1cc(F)ccc1-c1cc(C2CN([C@@H](CN3C[C@@H](O)[C@H](O)C3)C(C)C)C2)cn2c(C)ncc12)C(C)C [Example 446-2, 2-(6-{1-[(2R)-1-[(3R,4R)-3,4-dihydroxylpyrrolidin-1-yl]-3-methylbutan-2-yl]azacyclobutan-3-yl}-3-methylimidazo[1,5-a]pyridin-8-yl)-N-ethyl-5-fluoro-N-(isopropyl)benzamide]
- IC50 [1]: 0.044 µM

SMILES: CCN1CCN(CCC[C@@H](C(C)C)N2CC(c3cc(-c4ccc(F)cc4C(=O)N(CC)C(C)C)c4cnn(C)c4c3)C2)CC1 [Example 394-1, N-ethyl-2-(6-{1-[(3S)-6-(4-ethylpiperazin-1-yl)-2-methylhexan-3-yl]azacyclobutan-3-yl}-1-methyl-1H-indazol-4-yl)-5-fluoro-N-(isopropyl)benzamide]
- IC50 [1]: 0.188 µM

SMILES: CCS(=O)(=O)N[C@@H]1CC[C@@H](CN2CC[C@H](c3cc(-c4ccc(F)cc4C(=O)N(CC(F)F)C(C)C)c4cnc(C)n4c3)C2)OC1 [Example 163-2, N-(2,2-difluoroethyl)-2-{6-[(3R)-1-{[(2S,5R)-5-ethanesulfonamidooxacyclohexan-2-yl]methyl}pyrrolidin-3-yl]-3-methylimidazo[1,5-a]pyridin-8-yl}-5-fluoro-N-(isopropyl)benzamide]
- IC50 [1]: 0.054 µM

SMILES: CCC(C1CCN(C(C)=O)CC1)N1CC(c2cc(-c3ccc(F)cc3C(=O)N3CCOC[C@H]3C)c3c(F)nc(C)n3c2)C1 (stereo partly drawn) [Example 280, 1-(4-{1-[3-(1-fluoro-8-{4-fluoro-2-[(3R)-3-methylmorpholin-4-carbonyl]phenyl}-3-methylimidazo[1,5-a]pyridin-6-yl)azacyclobutan-1-yl]propyl}piperidin-1-yl)ethan-1-one]
- IC50 [1]: 0.0195 µM

SMILES: CCN(C(=O)c1cc(F)ccc1-c1cc(C2CCN(C[C@H]3CC[C@H](NC(=O)OC(C)(C)C)CC3)C2)cn2c(C)ncc12)C(C)C (mixture of isomers) [Example 29, N-[(1r,4r)-4-{[3-(8-{2-[ethyl(isopropyl)aminoformyl]-4-fluorophenyl}-3-methylimidazo[1,5-a]pyridin-6-yl)pyrrolidin-1-yl]methyl}cyclohexyl]tert-butyl carbamate]
- IC50 [1]: 0.0105 µM

SMILES: CO[C@H]1CCN(CCC[C@@H](C(C)C)N2CC(c3cc(-c4ccc(F)cc4C(=O)N4CCOC[C@H]4C)c4cnn(C)c4c3)C2)C1 [Example 184-1]
- IC50 [1]: 0.805 µM

SMILES: CCN(C(=O)c1cc(F)ccc1-c1cc(C2CN([C@@H](CCCN3CCN(C(C)=O)CC3)C(C)C)C2)cn2c(C)nc(F)c12)C(C)C [Example 313]
- IC50 [1]: 0.048 µM

SMILES: CCN(C(=O)c1cc(F)ccc1-c1cc(C2CN([C@H](C)C3CCN(C(=O)NC)CC3)C2)cn2c(C)nc(F)c12)C(C)C [Example 283-1]
- IC50 [1]: 0.02 µM

SMILES: CCN(C(=O)c1cc(F)ccc1-c1cc(C2CCN(C[C@H]3CC[C@H](NS(=O)(=O)CC)CC3)C2)cc2cncn12)C(C)C (mixture of isomers) [Example 25, N-ethyl-5-fluoro-N-isopropyl-2-[7-(1-{[(1r,4r)-4-ethanesulfonamidocyclohexyl]methyl}pyrrolidin-3-yl)imidazo[1,5-a]pyridin-5-yl]benzamide]
- IC50 (Menin-MLL IC50, fluorescence polarization): 0.019 µM

SMILES: COC1CCN(CCC[C@@H](C(C)C)N2CC(c3cc(-c4ccc(F)cc4C(=O)N4CCOC[C@H]4C)c4cnn(C)c4c3)C2)CC1 [Example 181-1, 4-{4-fluoro-2-[(3R)-3-methylmorpholin-4-carbonyl]phenyl}-6-{1-[(3S)-6-(4-methoxypiperidin-1-yl)-2-methylhexan-3-yl]azacyclobutan-3-yl}-1-methyl-1H-indazole]
- IC50 [1]: 0.621 µM

SMILES: CCN(C(=O)c1cc(F)ccc1-c1cc(C2CCN(CC3CCC(NS(=O)(=O)CC)CC3)C2)cn2c(C)nnc12)C(C)C (centres unmarked) [Example 80, 2-(6-{1-[(4-ethanesulfonamidocyclohexyl)methyl]pyrrolidin-3-yl}-3-methyl-[1,2,4]triazolo[4,3-a]pyridin-8-yl)-N-ethyl-5-fluoro-N-(isopropyl)benzamide]
- IC50 [1]: 0.122 µM
